Data taken from patent US11192859B2, “Quinoline compounds as modulators of RAGE activity and uses thereof” (NEW YORK UNIVERSITY, priority 2016, dated 2021).

What was measured:
[1] = biological target: ctRAGE (Homo sapiens (Human), UniProt Q15109); test: Kd determinations (Tables 1 and 2); assay type: binding; conditions: Table 2
Protocol: Binding affinities of small molecules for either CT-RAGE or FH1 are determined by performing fluorescence titrations to generate binding isotherms and standard SPR experiments.
A number of representative quinoline compounds of this invention are or can be tested for their inhibitory activity.

[2] = biological target: binding of RAGE tail (ctRAGE) to DIAPH1 (Homo sapiens (Human), UniProt Q15109); test: Primary screen (high-throughput): blocking of GFP RAGE tail binding to DIAPH1; conditions: 12.5 μM; Table 2
Sequence of binding of RAGE tail (ctRAGE) to DIAPH1 (Q15109 364-404): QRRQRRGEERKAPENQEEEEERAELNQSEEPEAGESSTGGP
Protocol: […] Compounds that reduced binding of RAGE tail (ctRAGE) by at least 50% were then selected and subjected to 4-point dose response (10 uM, 1 uM, 0.1 uM and 0.01 uM).
• Step 1. Add 50 μl anti-DIAPH1 (1:160 dilution in 0.1M NaHCO3 pH 9.6)/well. Incubate overnight at 4° C. Day 2 • Step 2. Use the plate washer to aspirate anti-DIAPH11 and wash plates 4× with PBS 100 μl per well per wash. • Step 3. Add 180 μl 3% BSA in 1×PBS. Incubate for 1.5 hrs at room temperature Step 4. Use the plate washer to aspirate the blocking solution and wash 5× with PBS 300 μl per well. • Step 5. Add 50 μl of DIAPH1 containing lysate (85 μg) and incubate at RT for 3 hours. • Step 6. Aspirate the lysate and wash the plate 5×(100 μl) on the plate washer. • Step 7. Add 25 μl PBS to the wells. • Step 8. Add 0.5 μL compound per well. • Step 9. Add 24.5 μL GFP RAGE tail (125 nM) into each well for 2 hrs at room temperature. • Step 10. Aspirate and wash 5× with PBS (100 μL) on the plate washer. • Step 11. Add 100 μl PBS in each well. • Step 12. Detection: Read on fluorescence plate reader excitation […] and 485 nm emission
Compounds that blocked the binding of RAGE tail to DIAPH1 by 50% or more were subjected to 4 point dose response: 10 μM, 1 μM, 0.1 μM and 0.01 μM.

Sequence of ctRAGE (Q15109 23-404 limits assumed): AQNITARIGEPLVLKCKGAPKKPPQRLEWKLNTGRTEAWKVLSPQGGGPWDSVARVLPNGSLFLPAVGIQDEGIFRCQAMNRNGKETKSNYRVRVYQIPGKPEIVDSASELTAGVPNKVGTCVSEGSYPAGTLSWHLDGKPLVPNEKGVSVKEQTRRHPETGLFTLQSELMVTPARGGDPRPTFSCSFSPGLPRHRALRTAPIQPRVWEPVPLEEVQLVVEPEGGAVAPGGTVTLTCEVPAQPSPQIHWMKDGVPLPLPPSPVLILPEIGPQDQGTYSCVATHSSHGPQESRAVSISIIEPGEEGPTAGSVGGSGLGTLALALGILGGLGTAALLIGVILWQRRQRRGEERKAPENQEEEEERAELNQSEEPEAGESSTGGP

Kd [1]	inhibition at 12.5 µM [2]	Compound
43 µM	27%	CC(=O)Nc1ccc(-c2cc(C(=O)N3CCOCC3)c3cccc(Cl)c3n2)cc1 [Compound 101, N-(4-(8-Chloro-4-(morpholine-4-carbonyl)quinolin-2-yl)phenyl)acetamide]
29 µM	37%	CC(=O)Nc1ccc(-c2cc(C(=O)N3CCOCC3)c3cccc(Cl)c3n2)cn1 [Compound 102, N-(5-(8-Chloro-4-(morpholine-4-carbonyl)quinolin-2-yl)pyridin-2-yl)acetamide]
18 µM	38%	CC(=O)Nc1ccc(-c2cc(C(=O)N3CCOCC3)c3cccc(Cl)c3n2)nc1 [Compound 103, N-(6-(8-Chloro-4-(morpholine-4-carbonyl)quinolin-2-yl)pyridin-3-yl)acetamide]
60 µM	37%	CC(=O)Nc1ccc(-c2cc(C(=O)N3CCOCC3)c3cc(Cl)ccc3n2)cc1 [Compound 104, N-(4-(6-Chloro-4-(morpholine-4-carbonyl)quinolin-2-yl)phenyl)acetamide]
45 µM	32%	CC(=O)Nc1ccc(-c2cc(C(=O)N3CCOCC3)c3cc(Cl)ccc3n2)cn1 [Compound 105, N-(5-(6-Chloro-4-(morpholine-4-carbonyl)quinolin-2-yl)pyridin-2-yl)acetamide]
34 µM	35%	CC(=O)Nc1ccc(-c2cc(C(=O)N3CCOCC3)c3cc(Cl)ccc3n2)nc1 [Compound 106, N-(6-(6-Chloro-4-(morpholine-4-carbonyl)quinolin-2-yl)pyridin-3-yl)acetamide]
44 µM	31%	CC(=O)Nc1ccc(-c2cc(N3CCOCC3)c3ccccc3n2)cc1 [Compound 107, N-(4-(4-Morpholinoquinolin-2-yl)phenyl)acetamide]

Continued, molecule first:

Compound	Kd [1]	inhibition at 12.5 µM [2]
CC(=O)Nc1ccc(-c2cc(CN3CCOCC3)c3ccccc3n2)cc1 [Compound 108, N-(4-(4-(Morpholinomethyl)quinolin-2-yl)phenyl)acetamide]	11 µM	44%
CC(=O)Nc1ccc(-c2cc(CN3CCOCC3)c3ccccc3n2)nc1 [Compound 109, N-(6-(4-(Morpholinomethyl)quinolin-2-yl)pyridin-3-yl)acetamide]	1.9 µM	20%
CC(=O)Nc1ccc(-c2cc(CN3CCOCC3)c3cccc(Cl)c3n2)nc1 [Compound 111, N-(6-(8-Chloro-4-(morpholinomethyl)quinolin-2-yl)pyridin-3-yl)acetamide]	–	18%
CC(=O)Nc1ccc(-c2cc(C(C)N3CCOCC3)c3ccccc3n2)cc1 (centres unmarked) [Compound 112, N-(4-(4-(1-Morpholinoethyl)quinolin-2-yl)phenyl)acetamide]	–	27%
